Results as given in article PMC8565993 (International journal for parasitology, 2020).
Read-outs that look alike come from different tables or passages of the source.

Tests used:
[1] = tested on: P-glycoprotein (P-gp); conditions: compared with efficacious compounds such as BKI-1369; ref Arnold et al., 2019; cited from earlier work
[2] = tested on: Cryptosporidium parvum; conditions: ref Arnold et al., cited from earlier work
[3] = assay type: in vivo; conditions: mouse pregnancy safety dose 50 mg/kg
[4] = molecular target: T1, Human PKD3 (Homo sapiens, UniProt O94806); assay: Human PKD3 kinase inhibition; assay type: biochemical; conditions: read-out: Human PKD3 IC50
T1 sequence (O94806 1-890): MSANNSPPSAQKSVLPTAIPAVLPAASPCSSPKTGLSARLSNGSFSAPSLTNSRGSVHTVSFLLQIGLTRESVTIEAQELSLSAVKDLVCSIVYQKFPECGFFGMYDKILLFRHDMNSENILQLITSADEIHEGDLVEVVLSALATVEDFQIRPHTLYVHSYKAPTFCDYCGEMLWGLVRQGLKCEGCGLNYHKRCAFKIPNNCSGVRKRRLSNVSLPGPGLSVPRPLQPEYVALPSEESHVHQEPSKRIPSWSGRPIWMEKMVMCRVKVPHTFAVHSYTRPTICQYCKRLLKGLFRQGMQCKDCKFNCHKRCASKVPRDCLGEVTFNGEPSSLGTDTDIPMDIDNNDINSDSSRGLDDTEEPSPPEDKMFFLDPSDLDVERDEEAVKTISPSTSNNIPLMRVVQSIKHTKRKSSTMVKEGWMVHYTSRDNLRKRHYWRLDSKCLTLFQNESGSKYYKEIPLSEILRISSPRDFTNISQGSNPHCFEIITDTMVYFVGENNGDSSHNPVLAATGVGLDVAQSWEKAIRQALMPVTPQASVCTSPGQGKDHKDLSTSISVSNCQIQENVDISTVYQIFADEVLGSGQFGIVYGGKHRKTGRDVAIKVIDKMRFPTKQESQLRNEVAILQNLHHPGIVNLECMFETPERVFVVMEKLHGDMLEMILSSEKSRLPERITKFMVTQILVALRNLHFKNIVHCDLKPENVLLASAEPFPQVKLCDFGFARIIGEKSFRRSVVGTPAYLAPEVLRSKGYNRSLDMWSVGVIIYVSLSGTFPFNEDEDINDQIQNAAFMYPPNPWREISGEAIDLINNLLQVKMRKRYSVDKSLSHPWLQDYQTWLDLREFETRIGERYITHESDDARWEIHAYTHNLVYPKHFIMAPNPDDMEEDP

[5] = molecular target: T2, hERG (Homo sapiens, UniProt Q12809); assay: hERG automated patch clamp; assay type: cell-based; conditions: read-out: hERG Qpatch IC50
[6] = tested on: Toxoplasma gondii; assay: T. gondii mouse efficacy model; assay type: in vivo; conditions: QD
[7] = molecular target: T2, hERG; assay: hERG thallium flux assay
[8] = tested on: Toxoplasma gondii; assay: Toxoplasma gondii in vitro growth inhibition; assay type: cell-based; conditions: read-out: Toxoplasma gondii EC50; 50% reduction in growth
[9] = tested on: Cryptosporidium parvum; assay: Cryptosporidium parvum in vitro growth inhibition; assay type: cell-based; conditions: read-out: Cryptosporidium parvum EC50; 50% reduction in growth
[10] = tested on: Cryptosporidium parvum; assay: C. parvum; assay type: in vivo, mouse; conditions: >2 log unit reduction in infection
[11] = cited from earlier work
[12] = QD in mice
[13] = molecular target: T3, TgCDPK1 (Toxoplasma gondii, UniProt Q9BJF5); assay type: biochemical; conditions: read-out: TgCDPK1 IC50
T3 sequence (Q9BJF5 1-507): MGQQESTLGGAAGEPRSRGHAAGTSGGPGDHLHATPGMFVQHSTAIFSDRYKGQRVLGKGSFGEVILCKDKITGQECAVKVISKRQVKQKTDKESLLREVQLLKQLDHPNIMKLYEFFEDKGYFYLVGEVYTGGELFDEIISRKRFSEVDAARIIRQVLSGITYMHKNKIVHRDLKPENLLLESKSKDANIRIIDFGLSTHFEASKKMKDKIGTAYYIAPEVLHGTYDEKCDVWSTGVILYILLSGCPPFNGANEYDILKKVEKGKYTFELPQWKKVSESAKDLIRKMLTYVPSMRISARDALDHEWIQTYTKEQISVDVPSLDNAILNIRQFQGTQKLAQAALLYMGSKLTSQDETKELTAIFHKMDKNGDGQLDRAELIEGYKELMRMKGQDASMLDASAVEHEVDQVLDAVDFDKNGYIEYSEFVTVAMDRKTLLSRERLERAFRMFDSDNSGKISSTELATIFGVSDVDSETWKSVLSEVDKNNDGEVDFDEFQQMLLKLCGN

[14] = Toxicity and safety in calves; assay type: in vivo, calf; conditions: 3X maximal therapeutic doses; unpublished data
[15] = Plasma exposure after oral dosing in mice; assay type: in vivo, mouse; conditions: at the toxic dose of the same table row
[16] = assay type: in vivo
[17] = molecular target: T4, CpCDPK1 (Cryptosporidium parvum, UniProt A3FQ16); assay type: biochemical; conditions: read-out: CpCDPK1 IC50
T4 sequence (A3FQ16 1-538): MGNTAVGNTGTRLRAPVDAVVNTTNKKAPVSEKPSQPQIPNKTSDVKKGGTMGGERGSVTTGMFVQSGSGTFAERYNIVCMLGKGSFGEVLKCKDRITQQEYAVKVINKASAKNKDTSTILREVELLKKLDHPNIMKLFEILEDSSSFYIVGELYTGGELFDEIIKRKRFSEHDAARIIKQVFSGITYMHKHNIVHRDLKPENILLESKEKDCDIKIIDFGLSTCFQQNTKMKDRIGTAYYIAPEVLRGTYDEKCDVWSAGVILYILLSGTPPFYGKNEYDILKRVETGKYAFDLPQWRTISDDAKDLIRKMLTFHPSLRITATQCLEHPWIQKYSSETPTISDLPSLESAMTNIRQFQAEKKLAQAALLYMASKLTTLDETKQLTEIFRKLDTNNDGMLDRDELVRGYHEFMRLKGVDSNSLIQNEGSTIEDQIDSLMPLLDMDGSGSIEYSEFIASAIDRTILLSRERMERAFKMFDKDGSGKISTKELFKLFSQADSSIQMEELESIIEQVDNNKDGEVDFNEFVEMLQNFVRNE

[18] = cited from earlier work; remark: listed apart in the source
[19] = mice, 30 mg/kg oral dose, ref Hulverson et al., 2017a, 30 mg/kg
[20] = mice, 30 mg/kg oral dose, ref Hulverson et al., 2017a, listed as 1369, 30 mg/kg

T2 sequence (Q12809 whole entry): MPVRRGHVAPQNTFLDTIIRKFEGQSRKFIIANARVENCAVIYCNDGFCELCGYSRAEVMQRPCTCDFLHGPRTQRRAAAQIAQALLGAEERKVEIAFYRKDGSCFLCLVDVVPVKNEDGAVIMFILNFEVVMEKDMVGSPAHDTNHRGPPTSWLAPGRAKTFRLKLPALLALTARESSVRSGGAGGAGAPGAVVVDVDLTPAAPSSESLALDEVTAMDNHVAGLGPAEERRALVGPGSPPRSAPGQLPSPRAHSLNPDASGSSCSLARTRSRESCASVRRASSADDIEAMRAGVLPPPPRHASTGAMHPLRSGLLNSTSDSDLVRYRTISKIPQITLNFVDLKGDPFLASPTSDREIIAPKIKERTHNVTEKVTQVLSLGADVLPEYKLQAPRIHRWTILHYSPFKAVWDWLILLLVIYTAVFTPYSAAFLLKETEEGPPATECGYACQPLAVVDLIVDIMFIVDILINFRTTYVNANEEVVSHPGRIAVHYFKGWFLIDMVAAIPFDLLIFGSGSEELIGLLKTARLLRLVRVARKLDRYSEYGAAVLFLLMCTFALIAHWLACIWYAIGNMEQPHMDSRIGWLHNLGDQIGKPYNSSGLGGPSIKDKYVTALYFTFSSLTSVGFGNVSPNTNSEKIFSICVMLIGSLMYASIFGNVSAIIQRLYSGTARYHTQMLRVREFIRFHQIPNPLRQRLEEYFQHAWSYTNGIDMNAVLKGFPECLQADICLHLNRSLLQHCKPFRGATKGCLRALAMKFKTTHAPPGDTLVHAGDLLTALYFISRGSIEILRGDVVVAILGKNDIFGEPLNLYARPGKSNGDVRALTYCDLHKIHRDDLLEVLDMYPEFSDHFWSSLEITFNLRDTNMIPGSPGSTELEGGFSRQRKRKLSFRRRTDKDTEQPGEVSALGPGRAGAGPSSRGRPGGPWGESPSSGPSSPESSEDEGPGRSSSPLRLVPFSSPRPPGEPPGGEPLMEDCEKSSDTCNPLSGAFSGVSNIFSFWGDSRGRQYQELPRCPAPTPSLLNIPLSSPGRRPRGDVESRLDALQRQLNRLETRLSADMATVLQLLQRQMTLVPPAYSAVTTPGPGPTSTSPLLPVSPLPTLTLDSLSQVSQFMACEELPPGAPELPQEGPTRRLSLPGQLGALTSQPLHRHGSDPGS

For `CCOc1ccc2cc(-c3nn(CC4CCNCC4)c4ncnc(N)c34)ccc2n1` [BKI-1318], which Efflux ratio [1] is on record?
The Efflux ratio was “much higher efflux ratio”.

And the “Efficacy against Cryptosporidium when the P-gp pumps were inhibited” value ([2]; P-gp pumps inhibited, 2019)?
The value was “greatly improved”.

What about the “Efficacy against Cryptosporidium” value [2]; 2019 of the same molecule?
The value was “failed to be efficacious”.

Which results are given for `CCOc1ccc2cc(-c3nn(C(C)(C)C)c(N)c3C(N)=O)cnc2c1` [BKI-1517]?
Fertility (pregnant dams) [3]: 2 of 7; Total pups born [3]: 0; IC50 [4]: 1110 nM; IC50 [5]: > 16700 nM; T. gondii efficacious dose in mice ([6]; >2 log unit reduction in infection): 60 mg/kg QD; T. gondii efficacious dose in mice ([6]; ≥2 log reduction in infection): 60 mg/kg QD; IC50 [7]: > 30000 nM; EC50 [8]: 257 nM; EC50 [9]: 649 nM; C. parvum efficacious dose in mice ([10]; BID): 30 mg/kg BID

With `CCOc1ccc2cc(-c3nn(CC4CCN(C)CC4)c4ncnc(N)c34)ccc2c1` [BKI-1294] as the molecule, how does the “Levels reached in tissues of the GI tract” value ([11]; infected mice, ref Arnold et al., 2017) read?
Its value is “reached high levels in all tissues of the GI tract”.

And the IC50 [7]?
The IC50 was 790 nM.

And the “hERG Thallium Flux IC50” value [7]?
The value was “submicromolar”.

What about the EC50 [8] of the same molecule?
The EC50 was 137 nM.

And the EC50 [9]?
Its EC50 is 2220 nM.

And the “C. parvum efficacious dose in mice” value ([10]; QD)?
The value was 100 mg/kg QD.

What about the “Efficacy against Cryptosporidium infection in mice” value [2]; 2017 of the same molecule?
Its value is “significantly reduced infection”.

With `CCOc1ccc2cc(-c3nn(CC4CCN(C)CC4)c4ncnc(N)c34)ccc2n1` [BKI-1369] as the molecule, how does the “Observed maximum gastrointestinal tissue exposure after single dose, ascending colon” value [11, 19] read?
Its value is 23 µM.

And the “Observed maximum gastrointestinal tissue exposure after single dose, cecum” value [11, 19]?
Its value is 20 µM.

And the “Observed maximum gastrointestinal tissue exposure after single dose, duodenum” value [11, 19]?
The value was > 76 µM.

And the “Observed maximum gastrointestinal tissue exposure after single dose, jejunum/ileum” value [11, 19]?
The value was 39 µM.

And the “Observed maximum gastrointestinal tissue exposure after single dose, cecum” value [11, 20]?
The value was 20 ± 6 µM.

What about the “Observed maximum gastrointestinal tissue exposure after single dose, duodenum” value [11, 20] of the same molecule?
Its value is 76 ± 41 µM.

What about the “Dose at which toxicity was observed” value [12] of the same molecule?
Its value is 300 (QD in mice) mg/kg.

And the IC50 [5]?
Its IC50 is ~1000 nM.

And the IC50 ([5]; listed as 1369)?
Its IC50 is 970 nM.

What about the “Thallium flux IC50 relative to that of BKI-1294” value ([7]; higher IC50 than BKI-1294) of the same molecule?
Its value is > 10 fold.

What about the IC50 [13] of the same molecule?
Its IC50 is 6.1 nM.

What about the “Cardiovascular effects in calves” value [14] of the same molecule?
The value was “have not been detected”.

What about the EC50 [9] of the same molecule?
Its EC50 is 2500 nM.

And the “Observed maximum plasma exposure at toxic dose” value [15]?
Its value is 8.3 ± 0.2 µM.

And the “C. parvum efficacious dose in mice” value ([10]; QD)?
The value was 30 mg/kg QD.

What about the “Dog CV safety: ↓dP/dt (plasma conc.)” value ([16]; anesthetized dog, decreased cardiac contractility) of the same molecule?
The value was 9.3 µM.

What about the “Dog CV safety: ↑SVR (plasma conc.)” value ([16]; anesthetized dog, increased systemic vascular resistance) of the same molecule?
Its value is 129 µM.

And the “Dog CV safety: complete CV collapse (plasma conc.)” value ([16]; dog, in vivo)?
The value was > 50 µM.

And the “Dog CV safety: ↑QTcV (plasma conc.)” value ([16]; dog, in vivo)?
Its value is ~1.7 µM.

What about the “Dog CV safety: ↓CO (plasma conc.)” value ([16]; dog, in vivo) of the same molecule?
Its value is 9.3 µM.

What about the “Dog CV safety: ↓HR (plasma conc.)” value ([16]; dog, in vivo) of the same molecule?
Its value is 50 µM.

And the IC50 [17]?
The IC50 was 0.9 nM.

And the “Toxicity on repeated dosing” value ([18]; 50 mg/kg for 5 days, ref Hulverson et al., 2017a)?
The value was “multiple signs of toxicity”.

And the “Daily dose with no signs of GI side effects” value ([18]; mouse, in vivo)?
Its value is “up to 150 mg/kg”.

For `CCOc1ccc2cc(-c3nn(C4CCOCC4)c(N)c3C(N)=O)ccc2n1` [BKI-1841], which EC50 [8] is on record?
The EC50 was 130 nM.

What about the IC50 [13] of the same molecule?
Its IC50 is 30.1 nM.

And the EC50 [9]?
The EC50 was 1210 nM.

And the IC50 [17]?
The IC50 was 2.8 nM.
